Columns and labels:
[1] = target: T1, PARP1-CHFR interaction (Homo sapiens, UniProt Q96EP1); test: Glutathione affinity pull-down of GST tagged PARP1 with CHFR in HEK293 cells; assay type: cell-based; conditions: 10 uM, 16 hours
T1 construct: expressed in transfected cells; CHFR endogenous
T1 sequence (Q96EP1 1-664): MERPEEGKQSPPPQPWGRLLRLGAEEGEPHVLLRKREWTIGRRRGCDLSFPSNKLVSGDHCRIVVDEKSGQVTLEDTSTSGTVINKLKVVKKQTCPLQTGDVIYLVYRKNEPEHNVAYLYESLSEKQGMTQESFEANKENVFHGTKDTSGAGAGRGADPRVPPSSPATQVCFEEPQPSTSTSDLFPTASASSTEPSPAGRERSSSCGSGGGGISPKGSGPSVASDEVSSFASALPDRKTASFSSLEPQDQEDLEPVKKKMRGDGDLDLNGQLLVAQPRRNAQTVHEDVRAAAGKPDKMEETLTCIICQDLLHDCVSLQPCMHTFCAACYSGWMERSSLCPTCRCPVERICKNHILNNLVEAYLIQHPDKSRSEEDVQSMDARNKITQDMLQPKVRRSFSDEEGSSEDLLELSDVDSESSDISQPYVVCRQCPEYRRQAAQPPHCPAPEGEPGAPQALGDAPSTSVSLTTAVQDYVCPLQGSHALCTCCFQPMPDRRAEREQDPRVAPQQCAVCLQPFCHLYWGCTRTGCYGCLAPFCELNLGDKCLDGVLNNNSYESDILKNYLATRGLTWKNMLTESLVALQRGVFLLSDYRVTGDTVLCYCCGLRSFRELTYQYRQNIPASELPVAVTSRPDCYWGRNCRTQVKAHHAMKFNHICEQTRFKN
Description: In an attempt to generate possible lead compounds for the pharmacologic inhibition of the CHFR-PARP1 interaction, a high throughput computational screen of 5,256,508 chemical structures in the MCULE database of purchasable compounds using the AutoDockVina algorithm against the published crystal structure of the CHFR-PBZ domain was performed. The 10 most promising ‘hits’ based on Autodock Vina docking scores (<−9.7) were selected for further characterization. Commercially available compounds were tested for their impact on nuclear CHFR levels (FIG. 3A). Several compounds, including ‘A2’, ‘A3’, ‘A4’ and ‘A6’ decreased CHFR levels assayed by western blotting of whole cell extracts. The impact of the above referenced compounds on the PARP1/CHFR interaction were evaluated. HEK293 cells were transfected with GST tagged PARP1 and the interaction with CHFR determined in pull down assays for those 4 compounds. […] In contrast to treatment with ABT-888, ‘A3’ completely disrupted the interaction between GST-tagged PARP-1 and CHFR (FIG. 3B). […] Since it is possible that the co-immunoprecipitation between PARP-1 and CHFR after ‘A3’ treatment was negative due to the fact that CHFR was degraded, the experiment was repeated after transfection with the Ring-domain deleted ΔR-CHFR construct, which maintained both stable CHFR and PARP1 levels even after treatment with ‘A3’. […]

[2] = system: A549 cells; test: Cell cycle analysis by flow-cytometry, antephase checkpoint; assay type: cell-based; conditions: unsynchronized A549 cells, 12 hours, docetaxel 50 nM with A3 10 uM
Text: Cell cycle arrest at G2/M in response to microtubular damage is a hallmark of a functional antephase checkpoint.

[3] = target: T2, CHFR (Homo sapiens, UniProt Q96EP1); test: CHFR levels by western blotting of whole cell extracts; assay type: cell-based; design: endogenous in cells; host or cells: A549; conditions: 10 uM, 24 hours, A549 cells
T2 sequence (Q96EP1 1-664): T1 sequence (Q96EP1 1-664)
Description: The 10 compounds with the highest docking scores were tested for their ability to regulate CHFR expression levels.
In an attempt to generate possible lead compounds for the pharmacologic inhibition of the CHFR-PARP1 interaction, a high throughput computational screen of 5,256,508 chemical structures in the MCULE database of purchasable compounds using the AutoDockVina algorithm against the published crystal structure of the CHFR-PBZ domain was performed. The 10 most promising ‘hits’ based on Autodock Vina docking scores (<−9.7) were selected for further characterization. Commercially available compounds were tested for their impact on nuclear CHFR levels (FIG. 3A). Several compounds, including ‘A2’, ‘A3’, ‘A4’ and ‘A6’ decreased CHFR levels assayed by western blotting of whole cell extracts. The impact of the above referenced compounds on the PARP1/CHFR interaction were evaluated. HEK293 cells were transfected with GST tagged PARP1 and the interaction with CHFR determined in pull down assays for those 4 compounds. […] In contrast to treatment with ABT-888, ‘A3’ completely disrupted the interaction between GST-tagged PARP-1 and CHFR (FIG. 3B). […]

[4] = target: T2, CHFR; test: CHFR protein levels in A549 nuclear extracts; assay type: cell-based; design: endogenous in cells; host or cells: A549
Description: HEK293 cells were stably transfected with the pDEST27-AR-CHFR construct. Deletion of the RING domain in this construct leads to both stable CHFR and PARP1 expression that is unaltered by treatment with increasing concentrations of ‘A3’ for 16 hours. Nonetheless, the interaction between glutathione-affinity purified CHFR-ΔR and PARP1 was decreased by ‘A3’ in a dose dependent fashion. A549 cells were incubated for 16.5 hrs with MG132 and indicated A3 concentration for 16 hrs. At 10 uM A3 concentration CHFR staining is diminished in the nucleus Cells are stained with CHFR.
In an attempt to generate possible lead compounds for the pharmacologic inhibition of the CHFR-PARP1 interaction, a high throughput computational screen of 5,256,508 chemical structures in the MCULE database of purchasable compounds using the AutoDockVina algorithm against the published crystal structure of the CHFR-PBZ domain was performed. The 10 most promising ‘hits’ based on Autodock Vina docking scores (<−9.7) were selected for further characterization. Commercially available compounds were tested for their impact on nuclear CHFR levels (FIG. 3A). […] The impact of the above referenced compounds on the PARP1/CHFR interaction were evaluated. HEK293 cells were transfected with GST tagged PARP1 and the interaction with CHFR determined in pull down assays for those 4 compounds. […]

[5] = Pharmacokinetics, plasma concentrations by LC/MS/MS; assay type: in vivo; conditions: CD1 mice
Description: The in vivo properties of ‘A3’ were evaluated. The pharmacokinetics of ‘A3’ after a single oral (25 mg/kg) and intravenous (10 mg/kg) dose of in CD1 mice were determined. Plasma was obtained at pre-specified time points (15 min to 24 hours) and ‘A3’ concentrations were determined by LC/MS/MS. […] Oral bioavailability of ‘A3’ was insignificant. The time-point of maximal CHFR suppression at 4 hrs follow the peak in A3 plasma levels with some delay.

[6] = Toxicity in treated xenograft mice; assay type: in vivo; conditions: combination treatment with A3 and docetaxel, 10 days after treatment
[7] = system: H460 cell line; test: Tumor growth in H460 mouse xenografts; assay type: in vivo, nude mice
Description: Pharmacokinetics of A3 were performed at various time points after iv and oral administration of a single dose of ‘A3’ at 10 mg/kg. 2.5×10^5 H460 cells were transplanted into the flank of nude mice were. 5 days after transplant, I.P. injection of DMSO, A3, docetaxel, or combination commenced. Explanted tumors are smallest in mice that were treated with combination therapy.
The in-vivo effects of ‘A3’, docetaxel and the combination on tumor growth in mouse xenografts, who were previously injected with the H460 cell line were evaluated.

[8] = target: PARP1 (Homo sapiens, UniProt P09874); test: In vitro parylation studies; assay type: biochemical
PARP1, sequence (P09874 whole entry, species assumed): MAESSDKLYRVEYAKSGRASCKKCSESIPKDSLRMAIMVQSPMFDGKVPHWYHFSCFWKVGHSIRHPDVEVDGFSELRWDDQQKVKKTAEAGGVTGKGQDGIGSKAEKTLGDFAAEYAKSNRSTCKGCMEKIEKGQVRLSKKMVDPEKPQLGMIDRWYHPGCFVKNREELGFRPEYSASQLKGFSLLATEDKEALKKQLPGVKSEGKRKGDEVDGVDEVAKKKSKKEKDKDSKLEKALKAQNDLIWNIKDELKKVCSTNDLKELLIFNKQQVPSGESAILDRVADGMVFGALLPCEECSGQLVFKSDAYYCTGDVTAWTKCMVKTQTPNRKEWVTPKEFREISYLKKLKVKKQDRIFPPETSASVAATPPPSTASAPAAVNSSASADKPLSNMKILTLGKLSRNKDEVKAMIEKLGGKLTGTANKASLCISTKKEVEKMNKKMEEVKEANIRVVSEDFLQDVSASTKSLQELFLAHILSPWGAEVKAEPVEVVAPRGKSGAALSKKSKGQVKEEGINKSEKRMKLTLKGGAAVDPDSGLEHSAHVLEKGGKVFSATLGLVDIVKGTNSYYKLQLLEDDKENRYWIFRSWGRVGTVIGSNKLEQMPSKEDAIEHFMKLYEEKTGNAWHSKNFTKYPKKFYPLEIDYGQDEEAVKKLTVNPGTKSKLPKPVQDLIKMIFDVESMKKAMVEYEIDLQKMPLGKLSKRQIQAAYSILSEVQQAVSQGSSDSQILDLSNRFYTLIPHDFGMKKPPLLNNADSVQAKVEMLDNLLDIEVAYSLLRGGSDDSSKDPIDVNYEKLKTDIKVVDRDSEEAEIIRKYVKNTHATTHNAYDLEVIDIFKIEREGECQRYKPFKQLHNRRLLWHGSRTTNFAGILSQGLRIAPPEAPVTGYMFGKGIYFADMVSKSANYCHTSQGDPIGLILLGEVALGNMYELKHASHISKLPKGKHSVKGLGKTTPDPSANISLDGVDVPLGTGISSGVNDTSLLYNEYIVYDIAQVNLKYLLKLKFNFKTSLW

[9] = system: CHFR expressing cell lines; test: Colony formation assays on a panel of cell lines of different cancer types; assay type: cell-based
Description: Various cell lines of different tissues of origin and with different CHFR expression status were exposed to 1 hour of docetaxel and 72 hours of ‘A3’. Effects were defined as 1−colony count (treatment)/colony count (control). The nature of the interaction between the two compounds was analyzed by the Bliss additivity method. […] For subsequent colony formation assays, cell lines were characterized into CHFR expressing vs. CHFR deficient cell lines by Western-Blot.
Finally, colony formation assays were performed on a panel of cell lines of different cancer types such as lung-, breast-, and colon cancer.

[10] = system: A549 cells; test: Cell viability assay, A3 with docetaxel; assay type: cell-based

## Cc1ccc(N2C(=O)NC(=O)C(=Cc3cn(Cc4ccccc4)c4ccccc34)C2=O)cc1C [A3, 5-((1-benzyl-1H-indol-3-yl)methylene)-1-(3,4-dimethylphenyl)pyrimidine-2,4,6(1H,3H,5H)-trione]
[1]
  interaction between PARP1 and CHFR: completely inhibited an interaction between PARP1 and CHFR
[2]
  docetaxel induced cell cycle arrest: prevented docetaxel induced cell cycle arrest
[3]
  CHFR expression: reduced CHFR expression
[4]; 10 uM, 16 hrs, A549
  CHFR protein levels: complete disappearance of CHFR
[4]; low concentrations of A3
  CHFR protein levels: initial increase in CHFR protein levels
[5]; following intravenous dosing 10 mg/kg
  distribution: rapidly and widely distributed
[5]; single oral (25 mg/kg) and intravenous (10 mg/kg) dose
  relative bioavailability from dose normalized AUC values: 19.5%
[5]; single oral dose 25 mg/kg
  Oral bioavailability: insignificant
[6]
  hematologic, hepatic and renal toxicity: not associated with a significant increase in hematologic, hepatic and renal toxicity
[7]; A3 alone compared to DMSO alone, I.P.
  tumor growth: did not have a discernable effect on tumor growth
[7]; A3 given 4 hours prior to docetaxel, compared to docetaxel alone
  tumor size: significantly decreased tumor size
[8]
  PARP1 auto-parylation: no impact on PARP1 auto-parylation
[9]; CHFR expressing cell line H460
  synergy between A3 and docetaxel, colony formation (Bliss additivity): strong synergy
[9]; CHFR expressing cell lines other than EKVX, 1 hour docetaxel, 72 hours A3
  synergy between A3 and docetaxel, colony formation (Bliss additivity): synergy between ‘A3’ and docetaxel was observed for all other CHFR expressing cell lines
[10]; 10 and 20 uM/nM concentrations
  nature of interaction of A3 and docetaxel by combination index: synergistic effects
[10]; A3 plus docetaxel, 10 and 20 nM concentrations, 72 hours, p<0.01
  cell viability, combination treated cells: statistically significantly decreased viability
[10]; A3 with docetaxel, A549 cells, 72 hours, Chou-Talaley method
  Combination index (CI): < 1
